From the NIST ThermoML archive (doi:10.1021/acs.jced.6b00901) come the findings set out here.

A short description of this series: refractive index (Na D-line) (dimensionless). To be noted: 101.33 kPa, Liquid, Standard Abbe refractometry.

± gives the expanded uncertainty stated by the source.

As a reminder, the refractive index is a measure of how strongly the sample bends light. As to `C=Cc1ccccc1` [styrene], the refractive index (283.15 K) was 1.5533 ± 0.0004; the refractive index (288.15 K) amounted to 1.5505 ± 0.0004; the refractive index (293.15 K) is 1.5472 ± 0.0004; the refractive index (298.15 K) is reported as 1.544 ± 0.0004; the refractive index (303.15 K) is given as 1.5409 ± 0.0004; the refractive index (308.15 K) is on record as 1.538 ± 0.0004. Also, the refractive index by setting is: (313.15 K) 1.5352 ± 0.0004; (318.15 K) 1.5321 ± 0.0004; (323.15 K) 1.5291 ± 0.0004.

`C1=CC2C3C=CC(C3)C2C1` (configuration not stated) [3a,4,7,7a-tetrahydro-4,7-methanoindene]: the refractive index is 1.5069 ± 0.0004 (308.15 K), 1.5045 ± 0.0004 (313.15 K), 1.5019 ± 0.0004 (318.15 K) and 1.4991 ± 0.0004 (323.15 K).

Regarding `CCOC(=O)c1ccccc1C(=O)OCC` [diethyl phthalate], the refractive index by setting is: (283.15 K) 1.507 ± 0.0004; (288.15 K) 1.5048 ± 0.0004; (293.15 K) 1.5027 ± 0.0004; (298.15 K) 1.5005 ± 0.0004; (303.15 K) 1.4984 ± 0.0004; (308.15 K) 1.4962 ± 0.0004. Also, the refractive index runs as follows: (313.15 K) 1.4939 ± 0.0004; (318.15 K) 1.4917 ± 0.0004; (323.15 K) 1.4897 ± 0.0004.
